# Like-named read-outs stand apart in the source and are kept apart here. Residues, ends and D or L forms follow the SMILES beside them. *: point of attachment. Cbz = O=C(OCc1ccccc1)*
# What was measured:
# [1] = tested on: BEAS-2B cells; assay: MTT assay in non-tumorigenic bronchial epithelial cells (selectivity); assay type: cell-based; conditions: Homo sapiens, 24 h, read-out: BEAS-2B IC50 ± SD
# Protocol: (§1) NSCLCs H292 and H460 were treated with various concentrations of derivatives of the RT right-half analog for 24 h. […] However, the IC50 values for DH_17, DH_20, DH_23, and DH_26 in H460 cells were greater than 100 μM. TM-(−)-18 was identified as a potent compound in a previous study. The structure of TM-(−)-18 was present in Figure 1A. […] To assess the selectivity of DH_28, DH_30, DH_31, and TM-(−)-18 in lung cancer cells, non-tumorigenic epithelial cell lines derived from human bronchial epithelial cells (BEAS-2B) were treated with DH_28, DH_30, DH_31, and TM-(−)-18 at various concentrations for 24 h.
# Figure 2 The effect of RT right-half analogs on cytotoxicity in NSCLC and human normal lung epithelial (BEAS-2B) cell lines and apoptotic cell death in NSCLC cells. (A) NSCLC H292 and H460 cells were treated with derivatives of RT right-half analogs for 24 h and analyzed using MTT assay to assess cytotoxicity. (B) IC50 values for H292 and H460 cell lines were calculated. (C) BEAS-2B cells were treated with DH_28, DH_30, DH_31, and TM-(−)-18 for 24 h. The cytotoxic effects were evaluated using an MTT assay, and the IC50 values for BEAS-2B cells were determined. (D) H292 and H460 cells were seeded and treated with 0–10 μM of DH_28, DH_30, and DH_31 for 24 h. Hoechst 33342 and PI were used to stain the cell nuclei. Images were obtained under a fluorescence microscope. (E) The percentages of cell death were calculated based on the stained images in H292 and H460 cells. […] TEXT PRINTED IN THE PICTURE: (B) DH_17: IC50 ± SD (μM) H292: 20.50 ± 3.69; IC50 ± SD (μM) H460: > 100 | (B) DH_20: IC50 ± SD (μM) H292: 21.46 ± 3.77; IC50 ± SD (μM) H460: > 100 | (B) DH_23: IC50 ± SD (μM) H292: 17.50 ± 3.08; IC50 ± SD (μM) H460: > 100 | (B) DH_26: IC50 ± SD (μM) H292: 7.18 ± 2.39; IC50 ± SD (μM) H460: > 100 | (B) DH_28: IC50 ± SD (μM) H292: 9.56 ± 1.87; IC50 ± SD (μM) H460: 11.48 ± 1.87 | (B) DH_30: IC50 ± SD (μM) H292: 7.80 ± 2.30; IC50 ± SD (μM) H460: 4.51 ± 0.78 | (B) DH_31: IC50 ± SD (μM) H292: 5.54 ± 1.04; IC50 ± SD (μM) H460: 2.90 ± 0.58 | (B) TM-(–)-18: IC50 ± SD (μM) H292: > 100; IC50 ± SD (μM) H460: 7.89 ± 1.27 | (C) DH_28: BEAS-2B IC50 ± SD (μM): 16.46 ± 2.11 | (C) DH_30: BEAS-2B IC50 ± SD (μM): 5.50 ± 1.70 | (C) DH_31: BEAS-2B IC50 ± SD (μM): 6.51 ± 1.40 | (C) TM-(–)-18: BEAS-2B IC50 ± SD (μM): 7.25 ± 1.25 DOUBTS OF THE COPYIST ABOUT THIS PICTURE: Panel C, DH_28, IC50: small print, 16.46 ± 2.11 is the best reading; 6 could be 8 / Panel C, DH_30, IC50: small print, 5.50 ± 1.70 is the best reading; 5 could be 6 / Panel C, DH_31, IC50: small print, 6.51 ± 1.40 is the best reading; 6 could be 8 or 5 / Panel C, TM-(–)-18, IC50: small print, 7.25 ± 1.25 is the best reading
# [2] = tested on: H460 cells; assay: MTT cell viability assay (cytotoxicity); assay type: cell-based, human; conditions: read-out: IC50 ± SD H460
# Protocol: as §1
# (§2) MTT assay was conducted to ascertain cell viability in the presence of DH_17, DH_20, DH_23, DH_26, DH_28, DH_30, DH_31, or TM-(–)-18. H292 and H460 cells (1.0 × 10^4 cells per well) were seeded in 96-well plates. Following overnight incubation, the cells were treated with different concentrations of RT right–half analogs (0–100 μM) for 24 h at 37 °C. Subsequently, cell viability was assessed using MTT assay, following the manufacturers’ protocols. The optical density was measured at 570 nm using a CLARIOStar microplate reader (BMG Labtech, Ortenberg, Germany).
# [3] = tested on: H292 cells; assay: MTT cell viability assay (cytotoxicity); assay type: cell-based, human; conditions: read-out: IC50 ± SD H292
# Protocol: as §1, §2
# [4] = tested on: H460 cells; assay type: cell-based; conditions: H460, 10 µM, 24 h
# Protocol: (§3) Apoptosis is a crucial mechanism of cell death induced by anticancer drugs. We further analyzed the apoptosis induction effect of the potent small molecules, namely DH_28, DH_30, and DH_31. Nuclear morphology detected by the staining with nucleus-specific fluorescence dye Hoechst 33342 and cell-impermeable PI for necrotic detection was performed. Morphologic changes by means of condensed and/or fragmented nuclei were observed after 24 h of treatment (Figure 2D). […] Therefore, DH_31 was selected for further experiments.
# (§4) Figure 2 The effect of RT right-half analogs on cytotoxicity in NSCLC and human normal lung epithelial (BEAS-2B) cell lines and apoptotic cell death in NSCLC cells. (A) NSCLC H292 and H460 cells were treated with derivatives of RT right-half analogs for 24 h and analyzed using MTT assay to assess cytotoxicity. (B) IC50 values for H292 and H460 cell lines were calculated. (C) BEAS-2B cells were treated with DH_28, DH_30, DH_31, and TM-(−)-18 for 24 h. The cytotoxic effects were evaluated using an MTT assay, and the IC50 values for BEAS-2B cells were determined. (D) H292 and H460 cells were seeded and treated with 0–10 μM of DH_28, DH_30, and DH_31 for 24 h. Hoechst 33342 and PI were used to stain the cell nuclei. Images were obtained under a fluorescence microscope. (E) The percentages of cell death were calculated based on the stained images in H292 and H460 cells. Data represent the mean ± SD (n = 3). *, **, and *** indicate a statistically significant difference between the treated and the untreated cells at p < 0.05, p < 0.01, and p < 0.001, respectively. TEXT PRINTED IN THE PICTURE: (B) DH_17: IC50 ± SD (μM) H292: 20.50 ± 3.69; IC50 ± SD (μM) H460: > 100 | (B) DH_20: IC50 ± SD (μM) H292: 21.46 ± 3.77; IC50 ± SD (μM) H460: > 100 | (B) DH_23: IC50 ± SD (μM) H292: 17.50 ± 3.08; IC50 ± SD (μM) H460: > 100 | (B) DH_26: IC50 ± SD (μM) H292: 7.18 ± 2.39; IC50 ± SD (μM) H460: > 100 | (B) DH_28: IC50 ± SD (μM) H292: 9.56 ± 1.87; IC50 ± SD (μM) H460: 11.48 ± 1.87 | (B) DH_30: IC50 ± SD (μM) H292: 7.80 ± 2.30; IC50 ± SD (μM) H460: 4.51 ± 0.78 | (B) DH_31: IC50 ± SD (μM) H292: 5.54 ± 1.04; IC50 ± SD (μM) H460: 2.90 ± 0.58 | (B) TM-(–)-18: IC50 ± SD (μM) H292: > 100; IC50 ± SD (μM) H460: 7.89 ± 1.27 | (C) DH_28: BEAS-2B IC50 ± SD (μM): 16.46 ± 2.11 | (C) DH_30: BEAS-2B IC50 ± SD (μM): 5.50 ± 1.70 | (C) DH_31: BEAS-2B IC50 ± SD (μM): 6.51 ± 1.40 | (C) TM-(–)-18: BEAS-2B IC50 ± SD (μM): 7.25 ± 1.25 DOUBTS OF THE COPYIST ABOUT THIS PICTURE: Panel C, DH_28, IC50: small print, 16.46 ± 2.11 is the best reading; 6 could be 8 / Panel C, DH_30, IC50: small print, 5.50 ± 1.70 is the best reading; 5 could be 6 / Panel C, DH_31, IC50: small print, 6.51 ± 1.40 is the best reading; 6 could be 8 or 5 / Panel C, TM-(–)-18, IC50: small print, 7.25 ± 1.25 is the best reading
# [5] = tested on: H292 cells; assay type: cell-based; conditions: H292, 10 µM; for apoptosis: 24 h; for necrosis: 24 h (p < 0.001)
# Protocol: as §3, §4
# [6] = biological target: T1, STAT3 (Homo sapiens, UniProt P40763); assay: STAT3 proteasomal degradation, Western blot with or without MG132; assay type: cell-based
# T1 construct: endogenous in cells; host or cells: NCI-H460 (ATCC HTB-177)
# T1 sequence (P40763 whole entry): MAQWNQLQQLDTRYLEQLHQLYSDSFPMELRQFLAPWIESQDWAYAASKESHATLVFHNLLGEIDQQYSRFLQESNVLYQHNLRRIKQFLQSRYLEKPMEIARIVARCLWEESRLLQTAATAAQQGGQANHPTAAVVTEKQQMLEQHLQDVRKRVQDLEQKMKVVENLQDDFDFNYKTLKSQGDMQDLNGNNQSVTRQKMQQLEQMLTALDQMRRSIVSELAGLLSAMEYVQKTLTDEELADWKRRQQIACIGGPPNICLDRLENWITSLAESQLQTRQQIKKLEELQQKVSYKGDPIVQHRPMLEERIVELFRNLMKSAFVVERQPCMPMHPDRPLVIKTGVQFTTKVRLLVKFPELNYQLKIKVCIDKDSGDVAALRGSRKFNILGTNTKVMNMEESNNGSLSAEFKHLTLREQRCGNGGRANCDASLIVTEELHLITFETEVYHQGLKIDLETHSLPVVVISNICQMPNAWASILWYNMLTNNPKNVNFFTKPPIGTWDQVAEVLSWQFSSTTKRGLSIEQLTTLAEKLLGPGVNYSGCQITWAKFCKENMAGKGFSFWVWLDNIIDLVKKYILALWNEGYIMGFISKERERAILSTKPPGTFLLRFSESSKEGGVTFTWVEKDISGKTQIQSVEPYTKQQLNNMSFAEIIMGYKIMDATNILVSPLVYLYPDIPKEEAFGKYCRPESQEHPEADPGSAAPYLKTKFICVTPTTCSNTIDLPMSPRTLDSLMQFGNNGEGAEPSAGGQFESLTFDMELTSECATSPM
# Protocol: To explore whether the reduction in total STAT3 protein after DH_31 treatments (as shown in Figure 5B–E) occurs at the mRNA or protein levels, we first investigated mRNA levels using Real-time qPCR. […] To evaluate whether DH_31 affects STAT3 stability, pretreatment with MG132, a potent selective proteasome inhibitor, was performed. H460 cells were pretreated with or without MG132 (10 μM) for 1 h and then cells were either treated with DH_31 for 6 h or left untreated. […] The proteasome can recognize and degrade protein targets that are conjugated by single or poly-ubiquitin molecules. To investigate the ubiquitination level of STAT3 with DH_31 treatments, the ubiquitination level was evaluated using immunoprecipitation and Western blot analysis of the STAT3–ubiquitin complex in the lung cancer cells treated with DH_31 and in untreated cells.
# Immunoprecipitation assay was performed to investigate ubiquitin–proteasomal degradation, shedding light on the regulatory mechanisms involved. H460 cells (4.0 × 10^5 cells per well) were seeded in 6-well plates. Following overnight incubation, the cells were pretreated with 10 μM of a proteasome inhibitor, MG132, for 1 h to prevent proteasomal degradation, and then were treated with different concentrations of DH_31 (0–2.5 μM) for 6 h. After treatment, the cells were lysed as described above. Immunoprecipitation was carried out using the Dynabeads™ Protein G Immunoprecipitation kit, following the manufacturers’ protocols. The magnetic beads were coated with the rabbit anti-STAT3, then incubated with whole-cell lysate and mixed gently overnight at 4 °C. After washing, the supernatant containing the antibody–antigen complex was used to perform Western blot analysis to detect the ubiquitinated STAT3 protein.
# [7] = tested on: B16F10 cells; set-up: method as in PMID 36014573; conditions: B16F10 cells induced by the RAW264.7 supernatant; cited from earlier work
# [8] = set-up: method as in PMID 32260280; conditions: concentration-dependent manner; cited from earlier work
structure (smiles),measurement,setting,value
"COc1c(C)cc2c(c1O)[C@@H]1CN(Cc3cccc4ccccc34)[C@@H](C#N)[C@H](C2)N1C [DH_28, (1R,4R,5S)-10-hydroxy-9-methoxy-8,11-dimethyl-3-(naphthalen-1-ylmethyl)-1,2,3,4,5,6-hexahydro-1,5-epiminobenzo[d]azocine-4-carbonitrile]",IC50,[1],16.5 ± 2.11 µM
same,IC50,[2]; 24 h,< 15 µM
same,IC50,"[2]; Homo sapiens, NCI-H460, 24 h",11.5 ± 1.87 µM
same,IC50,[3]; 24 h,< 15 µM
same,IC50,"[3]; Homo sapiens, NCI-H292, 24 h",9.56 ± 1.87 µM
same,apoptotic cell death,[4],significant apoptotic cell death
same,necrosis,[4],significant necrosis
same,apoptosis,[5],significant apoptosis
same,necrosis,[5],Necrosis was detected
"COc1c(C)cc2c(c1OCc1ccccc1)[C@@H]1CN(Cc3ccc4ccccc4c3)[C@@H](C#N)[C@H](C2)N1C [DH_30, (1R,4R,5S)-10-(benzyloxy)-9-methoxy-8,11-dimethyl-3-(naphthalen-2-ylmethyl)-1,2,3,4,5,6-hexahydro-1,5-epiminobenzo[d]azocine-4-carbonitrile]",IC50,[1],5.5 ± 1.7 µM
same,IC50,[3]; 24 h,< 15 µM
same,IC50,"[3]; Homo sapiens, NCI-H292, 24 h",7.8 ± 2.3 µM
same,apoptotic cell death,[4],significant apoptotic cell death
same,necrosis,[4],significant necrosis
same,apoptosis,[5],significant apoptosis
same,necrosis,[5],Necrosis was detected
CC(C)C[C@@H](C=O)NC(=O)[C@H](CC(C)C)NC(=O)[C@H](CC(C)C)NC(=O)OCc1ccccc1 [MG132] (Cbz-Leu-Leu-Leu-aldehyde),effect on DH_31-induced STAT3 downregulation,"[6]; H460, MG132 10 μM 1 h pretreatment, then DH_31 0, 1, 2.5 µM 6 h",significantly reversed
same,STAT3 level,"[6]; H460, MG132 10 μM pretreatment, all DH_31 concentrations",drastically increased
"CC=C(C)C(=O)OCC1c2c(c(O)c(C)c3c2OCO3)CC2C3C4=C(CC(C(C#N)N12)N3C)C(=O)C(C)=C(OC)C4=O (stereo not shown) [RT, Renieramycin T]",STAT3 expression,[7],reduced
same,"Twist, Snail, Vimentin, and N-cadherin expression",[7],reduced
same,migration ability,[7],reduced
"COc1c(C)cc2c(c1O)C1CN(Cc3ccccc3)C(C#N)C(C2)N1C (stereo not drawn) [TM-(−)-18, reference compound]",IC50,[1],7.25 ± 1.25 µM
same,IC50,"[2]; Homo sapiens, NCI-H460, 24 h",7.89 ± 1.27 µM
same,IC50,"[3]; Homo sapiens, NCI-H292, 24 h",> 100 µM
same,apoptosis,[8],increased
